According to US20230002367A1, “BIFUNCTIONAL COMPOUNDS” (Hoffmann-La Roche Inc., priority 2019, published 2023):

Target: T1, SMARCA2 (Homo sapiens, UniProt P51531)
T1 construct: endogenous in cells
Assay: SMARCA2 HiBiT degradation assay (cellular)
Assay type: cell-based
Details: for Emax: A549, Emax = amount of residual protein remaining in the cell following compound treatment; for DC50: SMARCA2 HiBiT cells, luminescence readout, 11-point titration from 10 μM, 6 hours or 16 hours, read-out: HiBit A549 SMARCA2 IP

T1 sequence (P51531 whole entry): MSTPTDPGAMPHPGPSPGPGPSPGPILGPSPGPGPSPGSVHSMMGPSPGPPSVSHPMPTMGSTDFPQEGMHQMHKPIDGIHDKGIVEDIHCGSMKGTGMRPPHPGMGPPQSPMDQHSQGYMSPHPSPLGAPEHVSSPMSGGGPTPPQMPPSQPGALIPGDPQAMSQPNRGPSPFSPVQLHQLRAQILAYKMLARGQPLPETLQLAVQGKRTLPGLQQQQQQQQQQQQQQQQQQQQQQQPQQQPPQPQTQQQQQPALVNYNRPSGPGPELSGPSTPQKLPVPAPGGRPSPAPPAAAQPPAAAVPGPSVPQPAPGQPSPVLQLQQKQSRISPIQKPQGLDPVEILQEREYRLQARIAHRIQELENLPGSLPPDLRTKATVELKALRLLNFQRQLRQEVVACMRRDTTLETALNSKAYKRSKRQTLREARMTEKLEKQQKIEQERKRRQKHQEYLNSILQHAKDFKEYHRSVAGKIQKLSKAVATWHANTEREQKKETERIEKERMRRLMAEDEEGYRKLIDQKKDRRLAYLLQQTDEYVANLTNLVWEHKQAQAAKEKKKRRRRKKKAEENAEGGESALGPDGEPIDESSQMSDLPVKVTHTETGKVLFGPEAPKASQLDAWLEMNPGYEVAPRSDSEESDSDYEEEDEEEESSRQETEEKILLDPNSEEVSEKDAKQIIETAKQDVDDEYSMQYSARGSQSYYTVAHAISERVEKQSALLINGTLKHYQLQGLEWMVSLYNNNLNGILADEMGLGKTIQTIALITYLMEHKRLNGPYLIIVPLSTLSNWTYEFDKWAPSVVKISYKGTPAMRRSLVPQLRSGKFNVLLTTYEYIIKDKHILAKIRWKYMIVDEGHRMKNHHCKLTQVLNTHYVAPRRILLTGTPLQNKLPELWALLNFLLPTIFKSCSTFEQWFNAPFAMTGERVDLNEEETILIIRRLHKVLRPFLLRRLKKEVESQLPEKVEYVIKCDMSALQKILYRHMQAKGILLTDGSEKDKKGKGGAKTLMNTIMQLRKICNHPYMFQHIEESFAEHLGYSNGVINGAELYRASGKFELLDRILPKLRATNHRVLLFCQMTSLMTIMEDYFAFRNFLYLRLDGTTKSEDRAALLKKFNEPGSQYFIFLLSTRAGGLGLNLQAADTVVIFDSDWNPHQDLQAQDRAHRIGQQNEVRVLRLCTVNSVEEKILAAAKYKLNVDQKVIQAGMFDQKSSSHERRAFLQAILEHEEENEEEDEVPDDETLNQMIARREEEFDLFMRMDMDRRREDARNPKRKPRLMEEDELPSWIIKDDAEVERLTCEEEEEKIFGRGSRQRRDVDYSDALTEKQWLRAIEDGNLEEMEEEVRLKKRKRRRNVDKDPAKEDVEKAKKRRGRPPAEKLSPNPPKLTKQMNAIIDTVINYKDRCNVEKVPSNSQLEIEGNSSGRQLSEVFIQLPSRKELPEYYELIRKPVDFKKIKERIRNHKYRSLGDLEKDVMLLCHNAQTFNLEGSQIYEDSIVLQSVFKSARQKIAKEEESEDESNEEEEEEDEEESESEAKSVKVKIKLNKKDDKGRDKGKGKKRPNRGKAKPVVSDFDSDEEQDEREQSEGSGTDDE

Row | Structure (SMILES) | Emax [%] | DC50 [nM]
1 | Cc1ncsc1-c1ccc(CNC(=O)[C@@H]2C[C@@H](O)CN2C(=O)[C@@H](NC(=O)CCCCCCCCC(=O)NCC(COc2cc(-c3ccccc3O)nnc2N)c2ccccc2)C(C)(C)C)cc1 (stereo partly drawn) [Example 50, N1-(3-((3-amino-6-(2-hydroxyphenyl)pyridazin-4-yl)oxy)-2-phenylpropyl)-N10-((S)-1-((2S,4R)-4-hydroxy-2-((4-(4-methylthiazol-5-yl)benzyl)carbamoyl)pyrrolidin-1-yl)-3,3-dimethyl-1-oxobutan-2-yl)decanediamide] | 63 | 2150
2 | Cc1ncsc1-c1ccc(CNC(=O)[C@@H]2C[C@@H](O)CN2C(=O)[C@@H](NC(=O)CCCCCCCCC(=O)N2CCN(c3cc(-c4ccccc4O)nnc3N)CC23CC3)C(C)(C)C)cc1 [Example 16, (2S,4R)-1-[(2S)-2-[[10-[7-[3-amino-6-(2-hydroxyphenyl)pyridazin-4-yl]-4,7-diazaspiro[2.5]octan-4-yl]-10-oxo-decanoyl]amino]-3,3-dimethyl-butanoyl]-4-hydroxy-N-[[4-(4-methylthiazol-5-yl)phenyl]methyl]pyrrolidine-2-carboxamide] | 33 | 872
3 | Cc1ncsc1-c1ccc([C@H](C)NC(=O)[C@@H]2C[C@@H](O)CN2C(=O)[C@@H](NC(=O)CCCCCCCCC(=O)N(C)CCCN(C)c2ccc(CCOc3cc(-c4ccccc4O)nnc3N)cc2)C(C)(C)C)cc1 (racemic) [Example 28, N′-[3-[4-[2-[3-amino-6-(2-hydroxyphenyl)pyridazin-4-yl]oxyethyl]-N-methyl-anilino]propyl]-N′-methyl-N-[rac-(1S)-2,2-dimethyl-1-[rac-(2S,4R)-4-hydroxy-2-[[rac-(1S)-1-[4-(4-methylthiazol-5-yl)phenyl]ethyl]carbamoyl]pyrrolidine-1-carbonyl]propyl]decanediamide] | 46 | 515
4 | Cc1ncsc1-c1ccc(CNC(=O)[C@@H]2C[C@@H](O)CN2C(=O)[C@@H](NC(=O)CCCCCCCCC(=O)N2CCC(CNC(=O)C3CN(c4cc(-c5ccccc5O)nnc4N)CCN3c3ccccc3)CC2)C(C)(C)C)cc1 (mixture of isomers) [Example 97, 4-[3-amino-6-(2-hydroxyphenyl)pyridazin-4-yl]-N-[[1-[10-oxo-10-[[rac-(1S)-2,2-dimethyl-1-[rac-(2S,4R)-4-hydroxy-2-[[4-(4-methylthiazol-5-yl)phenyl]methylcarbamoyl]pyrrolidine-1-carbonyl]propyl]amino]decanoyl]-4-piperidyl]methyl]-1-phenyl-piperazine-2-carboxamide] | 40 | 1150
5 | Cc1ncsc1-c1ccc(CNC(=O)[C@@H]2C[C@@H](O)CN2C(=O)[C@H](C(C)C)N2Cc3ccccc3C2=O)c(OCCCCCCCCCCC(=O)N2CCN(CCOc3cccc(N4C5CCC4CN(c4cc(-c6ccccc6O)nnc4N)C5)c3)CC2)c1 [Example 30, (2S,4R)-N-[[2-[11-[4-[2-[3-[3-[3-amino-6-(2-hydroxyphenyl)pyridazin-4-yl]-3,8-diazabicyclo[3.2.1]octan-8-yl]phenoxy]ethyl]piperazin-1-yl]-11-oxo-undecoxy]-4-(4-methylthiazol-5-yl)phenyl]methyl]-4-hydroxy-1-[(2S)-3-methyl-2-(1-oxoisoindolin-2-yl)butanoyl]pyrrolidine-2-carboxamide] | 65 | 1160
6 | Cc1ncsc1-c1ccc(CNC(=O)[C@@H]2C[C@@H](O)CN2C(=O)[C@@H](NC(=O)CCCCCC(=O)N2C3CCC2CN(c2cc(-c4ccccc4O)nnc2N)C3)C(C)(C)C)cc1 [Example 85, (2S,4R)-1-[(2S)-2-[[7-[3-[3-Amino-6-(2-hydroxyphenyl)pyridazin-4-yl]-3,8-diazabicyclo[3.2.1]octan-8-yl]-7-oxo-heptanoyl]amino]-3,3-dimethyl-butanoyl]-4-hydroxy-N-[[4-(4-methylthiazol-5-yl)phenyl]methyl]pyrrolidine-2-carboxamide] | 31 | 2190
7 | Cc1ncsc1-c1ccc(CNC(=O)[C@@H]2C[C@@H](O)CN2C(=O)[C@@H](NC(=O)CCCCCC(=O)NC(COc2cc(-c3ccccc3O)nnc2N)c2ccccc2)C(C)(C)C)cc1 (mixture of isomers) [Example 62, N-[2-[3-amino-6-(2-hydroxyphenyl)pyridazin-4-yl]oxy-1-phenyl-ethyl]-N′-[rac-(1S)-2,2-dimethyl-1-[rac-(2S,4R)-4-hydroxy-2-[[4-(4-methylthiazol-5-yl)phenyl]methylcarbamoyl]pyrrolidine-1-carbonyl]propyl]heptanediamide] | 54 | 2610
8 | Cc1ncsc1-c1ccc(CNC(=O)[C@@H]2C[C@@H](O)CN2C(=O)[C@@H](NC(=O)CCCCCCCCC(=O)NCC(COc2cc(-c3ccccc3O)nnc2N)c2ccccc2)C(C)(C)C)cc1 (mixture of isomers) [Example 51, N-[3-[3-amino-6-(2-hydroxyphenyl)pyridazin-4-yl]oxy-2-phenyl-propyl]-N′-[rac-(1S)-2,2-dimethyl-1-[rac-(2S,4R)-4-hydroxy-2-[[4-(4-methylthiazol-5-yl)phenyl]methylcarbamoyl]pyrrolidine-1-carbonyl]propyl]decanediamide] | 48 | 1650
9 | Cc1ncsc1-c1ccc([C@H](C)NC(=O)[C@@H]2C[C@@H](O)CN2C(=O)[C@@H](NC(=O)CCC(=O)N2CCOC3(CCN(c4cc(-c5ccccc5O)nnc4N)CC3)C2)C(C)(C)C)cc1 [Example 42, (2S,4R)-1-[(2S)-2-[[4-[9-[3-amino-6-(2-hydroxyphenyl)pyridazin-4-yl]-1-oxa-4,9-diazaspiro[5.5]undecan-4-yl]-4-oxo-butanoyl]amino]-3,3-dimethyl-butanoyl]-4-hydroxy-N-[(1S)-1-[4-(4-methylthiazol-5-yl)phenyl]ethyl]pyrrolidine-2-carboxamide] | 71 | 561
10 | Cc1ncsc1-c1ccc([C@H](C)NC(=O)[C@@H]2C[C@@H](O)CN2C(=O)[C@@H](NC(=O)CCC(=O)N2CCN(c3ccc(N4CCCC(Oc5cc(-c6ccccc6O)nnc5N)C4)cc3)CC2)C(C)(C)C)cc1 (mixture of isomers) [Example 47, rac-(2S,4R)-4-hydroxy-1-[rac-(2S)-2-[[4-[4-[4-[3-[3-amino-6-(2-hydroxyphenyl)pyridazin-4-yl]oxy-1-piperidyl]phenyl]piperazin-1-yl]-4-oxo-butanoyl]amino]-3,3-dimethyl-butanoyl]-N-[rac-(1S)-1-[4-(4-methylthiazol-5-yl)phenyl]ethyl]pyrrolidine-2-carboxamide] | 55 | 733
11 | Cc1ncsc1-c1ccc([C@H](C)NC(=O)[C@@H]2C[C@@H](O)CN2C(=O)[C@@H](NC(=O)CCCCCCCCC(=O)N2CCN(C(=O)c3ccc(OC4CN(c5cc(-c6ccccc6O)nnc5N)C4)cc3)CC2)C(C)(C)C)cc1 [Example 104, (2S,4R)-1-[(2S)-2-[[10-[4-[4-[1-[3-amino-6-(2-hydroxyphenyl)pyridazin-4-yl]azetidin-3-yl]oxybenzoyl]piperazin-1-yl]-10-oxo-decanoyl]amino]-3,3-dimethyl-butanoyl]-4-hydroxy-N-[(1S)-1-[4-(4-methylthiazol-5-yl)phenyl]ethyl]pyrrolidine-2-carboxamide] | 54 | 375
12 | Cc1ncsc1-c1ccc(CNC(=O)[C@@H]2C[C@@H](O)CN2C(=O)[C@@H](NC(=O)CCCCCCCN2CCN(C(=O)CN(C)Cc3ccc(-c4cc(-c5ccccc5O)nnc4N)cc3)CC2)C(C)(C)C)cc1 [Example 87, (2S,4R)-1-[(2S)-2-[8-[4-[2-[[4-[3-amino-6-(2-hydroxyphenyl)pyridazin-4-yl]phenyl]methyl-methyl-amino]acetyl]piperazin-1-yl]octanoylamino]-3,3-dimethyl-butanoyl]-4-hydroxy-N-[[4-(4-methylthiazol-5-yl)phenyl]methyl]pyrrolidine-2-carboxamide] | 51 | 1300
13 | Cc1ncsc1-c1ccc([C@H](C)NC(=O)[C@@H]2C[C@@H](O)CN2C(=O)[C@@H](NC(=O)CCCCCCCCCCC(=O)N2CCN(CCOc3cccc(N4CCCC(Oc5cc(-c6ccccc6O)nnc5N)C4)c3)CC2)C(C)(C)C)cc1 (mixture of isomers) [Example 72, rac-(2S,4R)-4-hydroxy-1-[rac-(2S)-2-[[12-[4-[2-[3-[3-[3-amino-6-(2-hydroxyphenyl)pyridazin-4-yl]oxy-1-piperidyl]phenoxy]ethyl]piperazin-1-yl]-12-oxo-dodecanoyl]amino]-3,3-dimethyl-butanoyl]-N-[rac-(1S)-1-[4-(4-methylthiazol-5-yl)phenyl]ethyl]pyrrolidine-2-carboxamide] | 35 | 421
14 | Cc1ncsc1-c1ccc([C@H](C)NC(=O)[C@@H]2C[C@@H](O)CN2C(=O)[C@@H](NC(=O)CCCCCCCCCCCCC(=O)N2CCN(CCOc3cccc(CCOc4cc(-c5ccccc5O)nnc4N)c3)CC2)C(C)(C)C)cc1 [Example 60, (2S,4R)-1-[(2S)-2-[[14-[4-[2-[3-[2-[3-amino-6-(2-hydroxyphenyl)pyridazin-4-yl]oxyethyl]phenoxy]ethyl]piperazin-1-yl]-14-oxo-tetradecanoyl]amino]-3,3-dimethyl-butanoyl]-4-hydroxy-N-[(1S)-1-[4-(4-methylthiazol-5-yl)phenyl]ethyl]pyrrolidine-2-carboxamide] | 24 | 300
15 | Cc1ncsc1-c1ccc([C@H](C)NC(=O)[C@@H]2C[C@@H](O)CN2C(=O)[C@@H](NC(=O)CCCCCCCCC(=O)N2CCN(C(=O)c3cccc(OC4CN(c5cc(-c6ccccc6O)nnc5N)C4)c3)CC2)C(C)(C)C)cc1 [Example 101, (2S,4R)-1-[(2S)-2-[[10-[4-[3-[1-[3-amino-6-(2-hydroxyphenyl)pyridazin-4-yl]azetidin-3-yl]oxybenzoyl]piperazin-1-yl]-10-oxo-decanoyl]amino]-3,3-dimethyl-butanoyl]-4-hydroxy-N-[(1S)-1-[4-(4-methylthiazol-5-yl)phenyl]ethyl]pyrrolidine-2-carboxamide] | 38 | 101
